Test results: paper PMC3705312, “Extracts, Anthocyanins and Procyanidins from Aronia melanocarpa as Radical Scavengers and Enzyme Inhibitors” (Nutrients, 2013)
Like-named read-outs stand apart in the source and are kept apart here.

What was measured:
[1] = Scavenging of the diphenylpicrylhydrazyl (DPPH) radical; conditions: average ± SD; for DPPH % scavenging at 10.4 µg/mL: sample concentration 10.4 µg/mL, 5 min, values marked ^; for DPPH IC50 (concentration to give 50% scavenging): 5 min reaction, A517, values marked #, triplicate
Protocol: Scavenging activity towards the DPPH radical was carried out as previously described [18]. Briefly, to 2.95 mL of a methanolic solution of DPPH (A517 1.0), 50 µL of the test compound (dissolved in DMSO or MeOH) was added. The mixture was stirred, and the decrease in UV absorbance at 517 nm was measured over a period of 5 min. Percent radical scavenging was calculated as 100 × (Astart − Aend)/(Astart), where Astart is the absorbance before addition of the test compound and Aend is the absorbance value after 5 min of reaction time. Values were corrected for absorbance of the test substances.

XO from bovine milk = molecular target: T1, XO from bovine milk (Bos taurus, UniProt P80457); assay: Inhibition of xanthine oxidase (XO), hypoxanthine as substrate; type: biochemical; conditions: average ± SD
T1 construct: purchased Sigma-Aldrich; host or cells: bovine milk
Protocol: (§1) Procyanidin B2 and B5 reference compounds were obtained from Plant Polyphenols LLC (Boyce, LA, USA). All other reagents were of the highest purity available.
The XO inhibitory activity with hypoxanthine as the substrate was measured spectrophotometrically based on the procedure of Noro et al., with some modifications. The assay mixture consisting of 50 µL of test compound (dissolved in DMSO or MeOH) or (for blanks) DMSO or MeOH alone, 1.85 mL of 50 mM sodium-potassium phosphate buffer (pH = 7.5) and 100 µL of enzyme solution (1.8 U/mL in 50 mM sodium-potassium phosphate buffer, pH = 7.5) was prepared immediately before use. Substrate solution (1.0 mL, 20 µg/mL hypoxanthine in distilled water) was added. The mixture was stirred, and the increase in absorbance at 290 nm was measured over a period of 5 min. Percent enzyme inhibition was calculated as 100 × [(∆A1 − ∆A2)/∆A1], where ∆A1 and ∆A2 are values for the increase in A290 for the sample without test substance and with test substance, respectively.

15-LO from soybeans = molecular target: T2, 15-LO from soybeans (Glycine max, UniProt P08170); assay: Inhibition of 15-lipoxygenase (15-LO); type: biochemical, soybean; conditions: borate buffer pH 9.00, average ± SD, triplicate
T2 construct: purchased Sigma-Aldrich
T2 sequence (P08170 1-839): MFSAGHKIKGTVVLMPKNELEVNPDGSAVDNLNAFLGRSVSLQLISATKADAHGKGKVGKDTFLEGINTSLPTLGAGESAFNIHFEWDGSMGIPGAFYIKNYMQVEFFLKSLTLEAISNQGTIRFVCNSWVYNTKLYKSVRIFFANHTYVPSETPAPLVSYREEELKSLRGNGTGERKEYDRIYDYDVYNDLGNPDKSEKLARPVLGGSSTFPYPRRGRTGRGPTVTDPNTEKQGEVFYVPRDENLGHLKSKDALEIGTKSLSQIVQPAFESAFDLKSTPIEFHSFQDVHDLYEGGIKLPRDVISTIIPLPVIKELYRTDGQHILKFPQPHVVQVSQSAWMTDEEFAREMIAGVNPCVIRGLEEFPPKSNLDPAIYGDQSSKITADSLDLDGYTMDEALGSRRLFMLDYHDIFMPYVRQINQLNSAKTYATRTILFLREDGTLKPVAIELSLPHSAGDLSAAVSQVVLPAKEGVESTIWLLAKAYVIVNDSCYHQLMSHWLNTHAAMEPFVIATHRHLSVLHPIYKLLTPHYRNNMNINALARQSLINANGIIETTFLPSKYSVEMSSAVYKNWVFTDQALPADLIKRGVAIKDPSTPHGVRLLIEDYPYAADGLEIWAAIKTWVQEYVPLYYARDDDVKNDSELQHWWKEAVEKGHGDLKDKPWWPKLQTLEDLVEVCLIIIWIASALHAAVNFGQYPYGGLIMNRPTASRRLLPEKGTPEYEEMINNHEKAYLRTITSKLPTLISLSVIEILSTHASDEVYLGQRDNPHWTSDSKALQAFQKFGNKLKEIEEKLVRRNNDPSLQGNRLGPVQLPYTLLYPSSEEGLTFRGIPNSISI

[2] = molecular target: T3, α-glucosidase from baker's yeast (Saccharomyces cerevisiae, UniProt P53341); assay: biochemical; conditions: 15 min, pH 7.0, average ± SD, triplicate
T3 construct: purchased Sigma-Aldrich
Protocol: as §1
The α-glucosidase inhibitory activity was determined by a slight modification of the procedure reported by Matsui et al.. The enzyme solution was set at 800 mU/mL of α-glucosidase in a 50 mM phosphate buffer (pH = 7.0) containing 100 mM sodium chloride. For each assay, 20 µL of the test solution in DMSO or MeOH and 80 µL of the enzyme solution were preincubated at 37 °C for 5 min. The reaction was started by adding 1.9 mL of substrate solution (0.7 mM PNP-G in the buffer), and the solution was then incubated at 37 °C for 15 min. After the reaction had been stopped by adding 2.0 mL of a 0.5 M Tris solution, the absorbance of PNP released from PNP-G at 400 nm was measured. Percent enzyme inhibition was calculated as 100 × (AB − AS)/(AB), where AB and AS represent the absorbance of the blank and sample, respectively.

[3] = linoleic acid 134 µM, read-out: 15-Lipoxygenase IC50 (converted)
[4] = 37 °C, read-out: α-Glucosidase IC50 (converted)
[5] = read-out: Xanthine oxidase % inhibition at a concentration of 42 µg/mL, 42 µg/mL

T1 sequence (P80457 whole entry): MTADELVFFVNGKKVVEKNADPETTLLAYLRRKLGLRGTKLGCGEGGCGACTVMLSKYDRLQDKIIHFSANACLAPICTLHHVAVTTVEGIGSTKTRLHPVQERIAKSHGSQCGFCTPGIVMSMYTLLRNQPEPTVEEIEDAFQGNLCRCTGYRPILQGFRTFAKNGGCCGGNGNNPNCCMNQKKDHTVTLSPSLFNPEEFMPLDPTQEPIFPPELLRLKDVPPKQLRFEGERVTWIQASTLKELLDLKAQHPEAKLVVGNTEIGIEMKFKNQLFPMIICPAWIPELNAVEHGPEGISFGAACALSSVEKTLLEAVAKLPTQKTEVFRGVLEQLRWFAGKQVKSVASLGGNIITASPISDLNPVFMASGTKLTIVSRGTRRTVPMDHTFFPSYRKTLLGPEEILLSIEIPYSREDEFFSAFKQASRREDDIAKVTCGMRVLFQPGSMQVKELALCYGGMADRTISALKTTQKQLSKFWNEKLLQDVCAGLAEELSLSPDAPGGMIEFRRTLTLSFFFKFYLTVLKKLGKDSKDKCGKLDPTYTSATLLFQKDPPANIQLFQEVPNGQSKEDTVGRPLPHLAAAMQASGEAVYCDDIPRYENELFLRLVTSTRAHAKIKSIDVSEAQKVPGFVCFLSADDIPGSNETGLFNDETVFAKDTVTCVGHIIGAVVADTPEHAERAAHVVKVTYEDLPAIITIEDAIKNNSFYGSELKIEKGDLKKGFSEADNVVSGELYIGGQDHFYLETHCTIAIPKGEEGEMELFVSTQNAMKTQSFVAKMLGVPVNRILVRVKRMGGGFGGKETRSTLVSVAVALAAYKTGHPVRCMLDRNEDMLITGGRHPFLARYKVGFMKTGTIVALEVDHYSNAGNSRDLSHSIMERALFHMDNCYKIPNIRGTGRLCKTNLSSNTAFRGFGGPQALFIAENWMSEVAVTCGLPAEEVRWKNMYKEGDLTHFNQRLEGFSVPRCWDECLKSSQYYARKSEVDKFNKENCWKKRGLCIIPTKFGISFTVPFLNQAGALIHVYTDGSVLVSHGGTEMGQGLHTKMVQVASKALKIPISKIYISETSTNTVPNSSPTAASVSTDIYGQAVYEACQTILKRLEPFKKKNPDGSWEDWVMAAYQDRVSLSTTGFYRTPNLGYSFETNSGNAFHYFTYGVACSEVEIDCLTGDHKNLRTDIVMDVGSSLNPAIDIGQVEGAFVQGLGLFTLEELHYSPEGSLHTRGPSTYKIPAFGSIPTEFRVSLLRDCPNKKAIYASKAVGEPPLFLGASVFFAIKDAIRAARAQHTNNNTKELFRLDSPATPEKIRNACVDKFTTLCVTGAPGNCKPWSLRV
T3 sequence (P53341 whole entry): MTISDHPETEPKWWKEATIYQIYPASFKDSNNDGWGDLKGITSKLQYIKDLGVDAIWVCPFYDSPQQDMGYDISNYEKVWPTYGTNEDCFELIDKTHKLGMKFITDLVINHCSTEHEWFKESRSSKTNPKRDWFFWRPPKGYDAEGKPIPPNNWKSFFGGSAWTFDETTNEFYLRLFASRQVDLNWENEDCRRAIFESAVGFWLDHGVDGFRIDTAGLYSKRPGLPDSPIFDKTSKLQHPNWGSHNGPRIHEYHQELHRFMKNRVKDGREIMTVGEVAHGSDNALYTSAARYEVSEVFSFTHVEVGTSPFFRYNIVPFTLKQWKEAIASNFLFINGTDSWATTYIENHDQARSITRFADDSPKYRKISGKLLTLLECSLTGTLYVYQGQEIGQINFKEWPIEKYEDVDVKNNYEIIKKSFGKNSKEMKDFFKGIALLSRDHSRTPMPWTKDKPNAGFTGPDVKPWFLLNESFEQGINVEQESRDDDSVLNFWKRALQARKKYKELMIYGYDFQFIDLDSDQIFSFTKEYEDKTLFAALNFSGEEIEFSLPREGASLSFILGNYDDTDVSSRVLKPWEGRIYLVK

SMILES | DPPH % scavenging at 10.4 µg/mL [1] | Xanthine oxidase % inhibition at a concentration of 17 µg/mL (XO from bovine milk) | IC50 (15-LO from soybeans; [3]) | IC50 [2, 4] | DPPH IC50 (concentration to give 50% scavenging) [1] | inhibition at 42 µg/mL (XO from bovine milk; [5]) | IC50 ([2]; α-Glucosidase IC50, 37 °C) | inhibition at 42 µg/mL (XO from bovine milk; 42 µg/mL, read-out: Xanthine oxidase % inhibition at a concentration of 42 µg/mL) | IC50 (15-LO from soybeans; 15-Lipoxygenase IC50, linoleic acid 134 µM) | inhibition at 17 µg/mL (XO from bovine milk; read-out: Xanthine oxidase % inhibition at a concentration of 17 µg/mL, 17 µg/mL)
OCC1OC(Oc2cc3c(O)cc(O)cc3[o+]c2-c2ccc(O)c(O)c2)C(O)C(O)C1O (centres unmarked) [Compound 2, cyanidin 3-glucoside] | 37.0 ± 0.9 ^^ % | 20.9 ± 3.4% | 163 µM | 1.94 µM | – | – | – | – | – | –
Oc1cc(O)c2c(c1)O[C@H](c1ccc(O)c(O)c1)[C@H](O)[C@H]2c1c(O)cc(O)c2c1O[C@H](c1ccc(O)c(O)c1)[C@H](O)[C@H]2c1c(O)cc(O)c2c1O[C@H](c1ccc(O)c(O)c1)[C@H](O)C2 [Compound 7, epi-(4β→8)-epi-(4β→8)-epi (C1)] | – | – | 66.5 µM | – | 3.2 ± 0.1 ^# µg/mL | 15.5 ± 1.5% | 4.38 µM | – | – | –
Oc1cc(O)c2cc(OC3OCC(O)C(O)C3O)c(-c3ccc(O)c(O)c3)[o+]c2c1 (centres unmarked) [Compound 3, cyanidin 3-arabinoside] | 40.0 ± 0.4 ^^ % | 39.1 ± 2.1% | 140 µM | 0.882 µM | – | – | – | – | – | –
Oc1cc(O)c2c(c1)O[C@H](c1ccc(O)c(O)c1)[C@H](O)[C@H]2c1c(O)cc2c(c1O)C[C@@H](O)[C@@H](c1ccc(O)c(O)c1)O2 [Compound 6, epi-(4β→6)-epi (B5)] | – | – | 125 µM | 9.51 µM | 5.2 ± 0.1 ^# µg/mL | 6.6 ± 0.7% | – | – | – | –
Oc1cc(O)c2c(c1)O[C@H](c1ccc(O)c(O)c1)[C@H](O)[C@H]2c1c(O)cc(O)c2c1O[C@H](c1ccc(O)c(O)c1)[C@H](O)C2 [Compound 5, procyanidin B2] | – | – | – | – | 4.7 ± 0.3 ^# µg/mL | – | 8.12 µM | 12.7 ± 2.8% | 113 µM | –
O=c1c(O)c(-c2ccc(O)c(O)c2)oc2cc(O)cc(O)c12 [Quercetin, quercetin, reference compound] | – | – | – | – | 3.0 ± 0.2 ^# µg/mL | – | – | – | – | –
Oc1cc(O)c2cc(OC3OCC(O)C(O)C3O)c(-c3ccc(O)c(O)c3)[o+]c2c1 (centres unmarked) [Compound 4, cyanidin 3-xyloside] | 25.0 ± 5.0 ^^ % | 11.4 ± 2.8% | > 198 µM | 13.1 µM | – | – | – | – | – | –
OCC1OC(Oc2cc3c(O)cc(O)cc3[o+]c2-c2ccc(O)c(O)c2)C(O)C(O)C1O (centres unmarked) [Compound 1, cyanidin 3-galactoside] | 39.0 ± 2.9 ^^ % | – | 159 µM | 3.43 µM | – | – | – | – | – | 11.9 ± 4.4%
